Assay [1] has as its target T1, Furin (108-574-Tev-Flag-His) enzyme (Homo sapiens, UniProt P09958).
T1 construct: Furin (108-574-Tev-Flag-His) enzyme was expressed and purified from CHO cells; TEV cleavage site (C); FLAG (C); His (C); made in house; host or cells: CHO cells
The assay can be described thus: Furin enzyme assay. Type of assay: biochemical. The method, boiled down: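 Compounds ran as 11-point threefold dilutions (0.00017–10 μM final) against 40 pM furin, purified from CHO cells, for 2 h at room temperature. Buffer: 100 mM HEPES pH7.5 with 1 mM CaCl2 and 0.005% Triton X-100. Envision readout. Four-parameter curve gives pXC50.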

The subject of assay [2] is hydroxyproline (a specific marker for collagen) in mouse lung. Briefly: Bleomycin induced lung fibrosis model: hydroxyproline assay. Type of assay: in vivo. Particulars: relative to levels induced by Bleomycin in vehicle treated animals, *p < 0.05. As to the method:
(§1) Preclinical pulmonary fibrosis can be induced by single instillation of Bleomycin to the mouse lung. A 15-day Bleomycin protocol was developed to evaluate compounds of the invention in vivo for their ability to inhibit TGFβ secretion and collagen deposition in the mouse lung. On the day before Bleomycin instillation, compounds were administrated to mice based on the appropriate route and frequency. On the study initiation day, under Ketamine (80 mg/kg) and Xylazine (10 mg/kg) anesthesia, all the animals were cannulated oro-tracheally and 50 μL of normal saline (Sham control) or 0.03 U Bleomycin in 50 μL saline (all groups except sham control group) was delivered into the trachea. Compounds were dosed daily until the end of study on Day 15. On termination day, animals were euthanized using CO2 inhalation. The right lung was collected, washed in normal saline, weighed, flash frozen in liquid nitrogen and stored at −80° C. for hydroxyproline (a specific marker for collagen) and TGFβ assays.
(§2) Flash frozen whole right lung tissues were homogenized in 500 μL of RIPA buffer containing PMSF and protease inhibitor cocktail using zirconium oxide bead based homogenizer (Bullet blender Gold, NextAdvance, Germany). Briefly, tissues were spun in the homogenizer at 4° C. for three cycles of 10 minutes each at 1000 g. A complete uniform tissue mixture was obtained using this procedure. The homogenate volume was made up to 1.5 mL by adding 1 mL of RIPA buffer containing PMSF and protease inhibitor cocktail to 500 μL of homogenate. The homogenate was stored as aliquots of 100-500 μL each at −80° C.
Acid hydrolysis: 500 μL of the homogenized lung parenchyma was transferred to glass vials, and an equal volume of 12N HCl was added (final concentration of HCl: 6N). The vials were purged with nitrogen gas, sealed and incubated overnight (16 h) under anoxic conditions at 110° C.
Post incubation procedures: 35 μL of the sample from each tube or standard (prepared by serial dilution of hydroxyproline stock solution) was added onto a 96 well plate and the assay was performed as per the kit protocol (Quickzyme Biosciences: Cat #: QZBHYPR05). After the final color development, absorbance was measured by colorimetric analysis at 570 nm (using Thermoscan spectrum (Plate Reader) and results were recorded. Standard curve (linear graph) was generated by using hydroxyproline standards provided in the Quickzyme kit.

Assay [3] has as its target T2, furin (endogenous protease) in U20S cells (Homo sapiens, UniProt P09958).
T2 construct: the endogenous protease cleaves GFP; endogenous in cells; host or cells: U2OS cells transduced with a BacMam reporter
Briefly: Furin cell-based assay (image-based, Golgi-targeted GFP with BMP10 furin/PCSK cleavage site).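 Further: Read-out is mean GFP fluorescence of Golgi puncta per cell by high-content imaging, retained when furin inhibited, over an eleven-point 0.00017–10 µM series, four-parameter fit.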 Particulars: 24-hour incubation, read-out: furin golgi cell pXC50 (converted).

The next assay deals with TGFβ in mouse lung. The assay can be described thus: Bleomycin induced lung fibrosis model: TGFβ assay. The assay is classed as in vivo. The conditions noted are these: relative to levels induced by Bleomycin in vehicle treated animals, *p < 0.05. As to the method: as §1, §2
Lung tissue homogenates (500 μL) were spun at 13,000 rpm for 20 minutes at 4° C. and supernatants were collected for TGFβ estimation. The assay was performed according to the manufacturer's manual (R&D systems: Cat #SMB100B). Briefly, the lung homogenates were activated by acid activation followed by neutralization to convert latent TGFβ to active TGFβ and the total TGFβ levels in supernatants were measured. Total protein levels in the lung supernatant were also determined.

The subject of assay [4] is epithelial sodium channel (ENaC). The assay can be described thus: TEER assay, chronic or acute treatment, Non-CF Polarized Human Lobar Bronchial Epithelial Cells. Details: RTE Before Amil / RTE After Amil: unit not given here. The conditions noted are these: for Delta RTE / RTE After Amil / RTE Before Amil: chronic treatment (overnight). The assay is classed as cell-based. As to the method:
Primary cultures of CF delF508 or non-CF HBE cells are seeded onto permeable filter supports and grown for 12-14 days for a significant RTE to be measured for TEER assays.
When the ENaC is active under basal conditions (at least in part due to protease cleavage inside the cell or at the apical membrane), there is a finite RTE that is affected by the Na+ current flowing through ENaC heterotrimers (αβγ or δβγ).

Where [5] appears, read: 10 mg/kg, Intra-peritoneal, Twice daily.
Setting [6] is: acute treatment, 3 μM thru 50 μM.
The mark [7] stands for this setting: 10 mg/kg, Intra-peritoneal, Once daily.

Structures can show the parent of a compound that is named as a salt.

T2 sequence (P09958 108-794): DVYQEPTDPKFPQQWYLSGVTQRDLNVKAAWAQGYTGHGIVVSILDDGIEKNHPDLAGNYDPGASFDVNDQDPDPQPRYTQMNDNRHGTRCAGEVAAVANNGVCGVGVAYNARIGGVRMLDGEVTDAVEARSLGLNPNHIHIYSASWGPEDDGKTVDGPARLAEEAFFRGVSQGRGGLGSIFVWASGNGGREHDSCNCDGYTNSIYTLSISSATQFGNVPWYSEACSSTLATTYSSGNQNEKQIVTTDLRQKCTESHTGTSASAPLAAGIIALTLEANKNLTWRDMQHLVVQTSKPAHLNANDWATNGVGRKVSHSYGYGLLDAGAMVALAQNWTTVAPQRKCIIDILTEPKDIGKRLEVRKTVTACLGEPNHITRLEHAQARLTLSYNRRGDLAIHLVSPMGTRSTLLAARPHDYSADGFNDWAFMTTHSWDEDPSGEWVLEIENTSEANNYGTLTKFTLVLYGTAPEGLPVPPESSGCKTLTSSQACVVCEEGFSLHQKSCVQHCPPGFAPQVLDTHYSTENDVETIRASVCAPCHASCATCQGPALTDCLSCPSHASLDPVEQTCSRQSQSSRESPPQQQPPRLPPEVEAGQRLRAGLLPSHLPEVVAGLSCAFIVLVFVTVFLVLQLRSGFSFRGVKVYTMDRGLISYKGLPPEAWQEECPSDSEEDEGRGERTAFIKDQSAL
T1 sequence (P09958 108-574): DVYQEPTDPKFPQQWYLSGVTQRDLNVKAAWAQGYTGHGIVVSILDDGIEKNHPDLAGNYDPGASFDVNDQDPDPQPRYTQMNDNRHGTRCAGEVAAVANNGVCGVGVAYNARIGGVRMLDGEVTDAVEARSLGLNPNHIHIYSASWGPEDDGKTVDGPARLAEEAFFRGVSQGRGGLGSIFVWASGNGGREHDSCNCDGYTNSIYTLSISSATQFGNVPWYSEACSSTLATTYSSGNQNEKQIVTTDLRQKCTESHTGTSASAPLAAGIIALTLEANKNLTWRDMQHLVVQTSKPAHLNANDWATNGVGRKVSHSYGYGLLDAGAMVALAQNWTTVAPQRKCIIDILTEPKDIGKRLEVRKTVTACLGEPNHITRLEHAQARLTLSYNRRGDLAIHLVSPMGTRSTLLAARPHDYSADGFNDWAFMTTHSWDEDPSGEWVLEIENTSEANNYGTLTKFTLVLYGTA

With `CC(=O)NCC1CCN(Cc2cc(Oc3ccc(N4CCN(CC(=O)O)CC4)nc3)nc(-c3cc(Cl)cc(Cl)c3)c2)CC1` [Example 10, 2-(4-(5-((4-((4-(Acetamidomethyl)piperidin-1-yl)methyl)-6-(3,5-dichlorophenyl)pyridin-2-yl)oxy)pyridin-2-yl)piperazin-1-yl)acetic acid, 4 hydrochloride], in assay [1], the “furin enzyme pIC50” value is 8.7. For the same compound, in assay [2] (setting [5]), the “% inhibition of hydroxyproline in lung” value is 16%. In addition, in assay [3], the EC50 is 126 nM. For the same compound, in the assay on TGFβ in mouse lung (setting [5]), the “% inhibition of total TGFβ in lung” value was 43* %.

On to `C[C@@H](O)CN1CCN(c2ncc(Oc3cc(CN4CCC(CC(=O)O)CC4)cc(-c4cc(Cl)cc(Cl)c4)n3)cn2)CC1` [Example 298, (R)-2-(1-((2-(3,5-Dichlorophenyl)-6-((2-(4-(2-hydroxypropyl)piperazin-1-yl)pyrimidin-5-yl)oxy)pyridin-4-yl)methyl)piperidin-4-yl)acetic acid], for which the “furin enzyme pIC50” value in assay [1] was 9.2. Moreover, the “% inhibition of hydroxyproline in lung” value in assay [2] (10 mg/kg, Oral, Once daily) is on record as 16* %. Also, the EC50 in assay [3] is 20 nM. For the same compound, the “% inhibition of total TGFβ in lung” value in the assay with TGFβ in mouse lung (10 mg/kg, Oral, Once daily) was 23* %.

For `COC(=O)NCC1CCN(Cc2cc(Oc3cnc(N4CCN(CCC(=O)O)CC4)nc3)nc(-c3cc(Cl)cc(Cl)c3)c2)CC1` [Example 62, 3-(4-(5-((6-(3,5-Dichlorophenyl)-4-1(4-(((methoxycarbonyl)amino)methyl)piperidin-1-yl)methyl)pyridin-2-yl)oxy)pyrimidin-2-yl)piperazin-1-yl)propanoic acid, 4 hydrochloride], the “furin enzyme pIC50” value in assay [1] is 9.8. Further, in assay [2] (30 mg/kg, Oral, Once daily), the “% inhibition of hydroxyproline in lung” value is recorded as −14%. In assay [3], the EC50 was 31.6 nM. For the same compound, in the assay with TGFβ in mouse lung (30 mg/kg, Oral, Once daily), the “% inhibition of total TGFβ in lung” value was 7%.

On to `CC(CC1CCN(Cc2cc(Oc3cnc(N4CCN(C)CC4)nc3)nc(-c3cc(Cl)cc(Cl)c3)c2)CC1)C(=O)O` (stereo in doubt) [Example 137, (R)-3-(1-((2-(3,5-dichlorophenyl)-6-((2-(4-methylpiperazin-1-yl)pyrimidin-5-yl)oxy)pyridin-4-yl)methyl)piperidin-4-yl)-2-methylpropanoic acid], for which, in assay [1], the “furin enzyme pIC50” value amounted to 9.1. The “% inhibition of hydroxyproline in lung” value in assay [2] (10 mg/kg, Oral, Once daily) was 54* %. The EC50 in assay [3] was 10 nM. In addition, in the assay with TGFβ in mouse lung (10 mg/kg, Oral, Once daily), the “% inhibition of total TGFβ in lung” value is 81* %.

On to `CS(=O)(=O)CCCN1CCN(c2ncc(Oc3cc(CN4CCC(CC(=O)O)CC4)cc(-c4cc(Cl)cc(Cl)c4)n3)cn2)CC1` [Example 242, 2-(1-((2-(3,5-Dichlorophenyl)-6-((2-(4-(3-(methylsulfonyl)propyl)piperazin-1-yl)pyrimidin-5-yl)oxy)pyridin-4-yl)methyl)piperidin-4-yl)acetic acid], for which the “furin enzyme pIC50” value in assay [1] worked out at 8.6. For the same compound, the “% inhibition of hydroxyproline in lung” value in assay [2] (10 mg/kg, Oral, Once daily) is given as −1%. Besides, the EC50 in assay [3] is 25.1 nM. Moreover, the “% inhibition of total TGFβ in lung” value in the assay with TGFβ in mouse lung (10 mg/kg, Oral, Once daily) is listed as 40* %.

Consider `CN(C)C(=O)COC(=O)Cc1ccc(OC(=O)c2ccc(NC(=N)N)cc2)cc1` [Camostat], for which the “Delta RTE after Amil” value in assay [4] (setting [6]) was “+15 ± 2”. Also, the “Delta RTE after Volume Additions” value in assay [4] (setting [6]) is “+82 ± 4”. In addition, the “inhibition of amiloride-sensitive RTE delta (remaining ENaC activity)” value in assay [4] (acute treatment, tested at much higher concentrations than Example 11) is listed as “more strongly”. The “effect on the amiloride-sensitive RTE delta” value in assay [4] (chronic overnight treatment, 50 μM, P<0.05) is on record as “equivalent inhibitory effect”. The “Delta RTE” value is listed as “+172 ± 20” in assay [4] (3 μM), “+119 ± 1” in assay [4] (10 μM), “+163 ± 8” in assay [4] (30 μM) and “+98 ± 2” in assay [4] (50 μM). Besides, the “RTE After Amil” value in assay [4] (3 μM) stood at 615 ± 26; in assay [4] (10 μM) it was 506 ± 10; in assay [4] (30 μM) it was 635 ± 13; in assay [4] (50 μM) it was 446 ± 3. Moreover, the “RTE Before Amil” value in assay [4] (3 μM) is 443 ± 6; in assay [4] (10 μM), 387 ± 11; in assay [4] (30 μM) it was 472 ± 6; in assay [4] (50 μM) it was 348 ± 4.

As to `O=C(O)CC1CCN(Cc2cc(Oc3cnc(N4CCNCC4)nc3)nc(-c3cc(Cl)cc(Cl)c3)c2)CC1` [Example 206, 2-(1-((2-(3,5-Dichlorophenyl)-6-((2-(piperazin-1-yl)pyrimidin-5-yl)oxy)pyridin-4-yl)methyl)piperidin-4-yl)acetic acid], the “furin enzyme pIC50” value in assay [1] worked out at 8.6. Besides, the “% inhibition of hydroxyproline in lung” value in assay [2] (10 mg/kg, Oral, Once daily) is 6%. The EC50 in assay [3] is 25.1 nM. Further, the “% inhibition of total TGFβ in lung” value in the assay on TGFβ in mouse lung (10 mg/kg, Oral, Once daily) is −11%.

For the compound `CC(=O)NCC1CCN(Cc2cc(Oc3ccc(N4CCN(CCO)CC4)nc3)nc(-c3cc(Cl)cc(Cl)c3)c2)CC1` [Example 180, N-((1-((2-(3,5-Dichlorophenyl)-6-((6-(4-(2-hydroxyethyl)piperazin-1-yl)pyridin-3-yl)oxy)pyridin-4-yl)methyl)piperidin-4-yl)methyl)acetamide], the “furin enzyme pIC50” value in assay [1] is on record as 9.1. Moreover, the “% inhibition of hydroxyproline in lung” value in assay [2] (setting [7]) was 56* %. The EC50 in assay [3] is 3.16 nM. Further, the “% inhibition of total TGFβ in lung” value with TGFβ in mouse lung (setting [7]) was 60* %.

For the compound `CC(=O)NCC1CCN(Cc2cc(Oc3cnc(N4CCN(CCC(C)C(=O)O)CC4)nc3)nc(-c3cc(Cl)cc(Cl)c3)c2)CC1` (stereo not shown) [Example 369, 4-(4-(5-((4-((4-(Acetamidomethyl)piperidin-1-yl)methyl)-6-(3,5-dichlorophenyl)pyridin-2-yl)oxy)pyrimidin-2-yl)piperazin-1-yl)-2-methylbutanoic acid, 4 hydrochloride], in assay [1], the “furin enzyme pIC50” value worked out at 9.3. Besides, the “% inhibition of hydroxyproline in lung” value in assay [2] (10 mg/kg, Oral, Once daily) was 62* %. Also, in assay [3], the EC50 is 5.01 nM. In the assay on TGFβ in mouse lung (10 mg/kg, Oral, Once daily), the “% inhibition of total TGFβ in lung” value was 75* %.

`CC(=O)NCC1CCN(Cc2cc(Oc3ccc(N4CCN(CCS(C)(=O)=O)CC4)nc3)nc(-c3cc(Cl)cc(Cl)c3)c2)CC1` [Example 12, N-((1-((2-(3,5-Dichlorophenyl)-6-((6-(4-(2-(methylsulfonyl)ethyl)piperazin-1-yl)pyridin-3-yl)oxy)pyridin-4-yl)methyl)piperidin-4-yl)methyl)acetamide, 4 hydrochloride]: the “furin enzyme pIC50” value in assay [1] came to 8.3. Also, the “% inhibition of hydroxyproline in lung” value in assay [2] (30 mg/kg, Oral, Once daily) is reported as 45* %. Besides, in assay [3], the EC50 is 25.1 nM. In addition, the “% inhibition of total TGFβ in lung” value in the assay on TGFβ in mouse lung (30 mg/kg, Oral, Once daily) is given as 41* %.

`CN1CCCN(c2cnc(Oc3cc(CN4CCC(CC(=O)O)CC4)cc(-c4cc(Cl)cc(Cl)c4)n3)cn2)CC1` [Example 340, 2-(1-((2-(3,5-dichlorophenyl)-6-((5-(4-methyl-1,4-diazepan-1-yl)pyrazin-2-yl)oxy)pyridin-4-yl)methyl)piperidin-4-yl)acetic acid]: the “furin enzyme pIC50” value in assay [1] came out at 8.8. For the same compound, in assay [2] (30 mg/kg, Oral, Once daily), the “% inhibition of hydroxyproline in lung” value is recorded as 21* %. Further, in assay [3], the EC50 was 20 nM. Also, in the assay with TGFβ in mouse lung (30 mg/kg, Oral, Once daily), the “% inhibition of total TGFβ in lung” value is on record as 26* %.

Take `CN1CCN(c2ncc(Oc3cc(CN4CCC(CC(=O)O)CC4)cc(-c4cc(Cl)cc(Cl)c4)n3)cn2)CC1` [Example 207, 2-(1-((2-(3,5-Dichlorophenyl)-6-((2-(4-methylpiperazin-1-yl)pyrimidin-5-yl)oxy)pyridin-4-yl)methyl)piperidin-4-yl)acetic acid]: in assay [2] (10 mg/kg, Oral, Once daily), the “% inhibition of hydroxyproline in lung” value is given as 46* %. For the same compound, the “% inhibition of total TGFβ in lung” value in the assay on TGFβ in mouse lung (10 mg/kg, Oral, Once daily) is 66* %.
